{
  "source": "patent US11123309B2",
  "about": "“Methods for drug delivery, tumor imaging, and oxidative dehydrogenation using hierarchical ZSM-5 complex” (Imam Abdulrahman Bin Faisal University, priority 2018, dated 2021)",
  "origin": "cited, not measured here",
  "data": [
    {"smiles": "Oc1ccc(/C=C/c2cc(O)cc(O)c2)cc1", "note": "[resveratrol, 3,5,4′ trihydroxy trans stilbene]", "values": [
      {"measurement": "solubility in water", "result": 50, "unit": "microgram per ml"}
    ]}
  ]
}
